Reference: patent US4639459A, “Use of trifluoromethyl compounds” (priority 1985, dated 1987)

Key:
[1] = Pharmacokinetic studies comparing relative distribution in brain and plasma; conditions: rodents
[2] = human, in vivo; cited from earlier work

| Structure (SMILES) | penetration of the brain [1] | sedation and drowsiness [2] |
| --- | --- | --- |
| O=C(O)/C=C/c1cccc(/C(=C/CN2CCCC2)c2ccc(C(F)(F)F)cc2)n1 [Compound of Formula (I), (E)-3-{6-[3-Pyrrolidino-1(4-Trifluoromethylphenyl)prop-1E-enyl]-2-pyridyl}acrylic acid] | does not readily penetrate the brains of rodents |  |
| Cc1ccc(/C(=C\CN2CCCC2)c2ccccn2)cc1 [Triprolidine, (E)-1-(4-methylphenyl)-1-(2-pyridyl)-3-pyrrolidinoprop-1-ene] |  | produces sedation and drowsiness in varying degrees in most patients |
